The values below come from patent EP2718307B1, “BETA-HAIRPIN PEPTIDOMIMETICS AS CXC4 ANTAGONISTS” (Polyphor AG, priority 2011, dated 2012).

Bridge positions count the residues as written; N and C are the ends. Square brackets hold non-standard residues; d marks the D form. Peptide text beside a SMILES is read from it. Lys(iPr) = CC(C)NCCCC[C@H](N)C(=O)O; Orn(iPr) = CC(C)NCCC[C@H](N)C(=O)O; Dab = NCC[C@H](N)C(=O)O

For one data set, the target named is T1, CXCR4 receptor (Homo sapiens, UniProt P61073).
T1 construct: Namalwa cells (CXCR4 natively expressing non-adherent cells, ATCC CRL-1432); host or cells: Namalwa cells
The experiment in a line: Chemotactic assay (cell migration assay): response of Namalwa cells to an SDF-1 gradient. It is filed as cell-based. How it is done: Namalwa cells (CXCR4 natively expressing non-adherent cells, ATCC CRL-1432) were cultured in RPMI1640 plus 10% FBS, and pen/strept. HELA cells were maintained in RPMI1640 plus 10% FBS, pen/strept and 2 mM L-glutamine. Cos-7 cells were grown in DMEM medium with […] glucose supplemented with 10% FCS, pen/strept and 2 mM L-glutamine. All cell lines were grown at 37 °C at 5% CO2. Cell media, media supplements, PBS-buffer, HEPES, antibiotic/antimycotic, pen/strept, non essential amino acid, L-glutamine, β-mercaptoethanol and sera were purchased from Gibco (Pailsey, UK). All fine chemicals were supplied by Merck (Darmstadt, Germany).
The chemotactic response of Namalwa cells (ATCC CRL-1432) to a gradient of stromal cell-derived factor 1α (SDF-1) was measured using a modified Boyden chamber chemotaxis system (ChemoTx; Neuroprobe). In this system, the upper chamber of each well is separated from the lower chamber containing the chemoattractant SDF-1 by a polycarbonate membrane (5µm pore size). A circular area of that membrane in the region that covers each lower well is enclosed by a hydrophobic mask to retain the cell suspension within this area. The system was prepared by loading the bottom wells with aliquots of […] chemotaxis medium (RPMI 1640 without Phenol red + 0.5% BSA) comprising either appropriate serial dilutions of peptides or no peptide at all in combination with SDF-1 (0.9 nM) or without the chemoattractant. The membrane was placed over the bottom wells, and aliquots of 50 µL of a suspension of Namalwa cells (3.6 x 10^6 cells/mL) in chemotaxis medium, premixed with chemotaxis medium comprising either appropriate serial dilutions of peptides or no peptide at all, was delivered onto each of the hydrophobically limited regions of the upper surface of the membrane. The cells were allowed to migrate into the bottom chamber for 5 h at 37 °C in 5% CO2. After this period, the membrane was removed and its topside was carefully wiped and washed with PBS to eliminate non-migrated cells. Migrated cells were transferred using a "funnel" adaptor to a receiving 96-well plate and the cell number was determined by using the CyQuant™ NF cell proliferation assay (Invitrogen) based on the measurement of cellular DNA content via fluorescent dye binding. Following the manufacturer's directions, 50 µL of CyQuant™ dye reagent/HBSS buffer (1/500 [v/v]) were added to each well of the above mentioned receiving 96-well plate. After incubation for 0.5 h at room temperature the plate was sealed and the fluorescence intensity of each sample was measured by using a Wallac 1420 VICTOR^2™ plate reader (PerkinElmer) with excitation at 485 nm and emission detection at 535 nm. Finally, the data were normalized by using the controls and IC50-values were determined using GraphPad Prism™ (GraphPad) by fitting a logarithmic curve to the averaged datapoints.

For data set [1], the system named is human red blood cells (hRBC). Kind of data set: Hemolysis. It is filed as cell-based. As to conditions: 100 µM, 20% hRBC, 1 h at 37°C. How it is done: The peptides were tested for their hemolytic activity against human red blood cells (hRBC). Fresh hRBC were washed four times with phosphate buffered saline (PBS) and centrifuged for 10 min at 3000 x g. Compounds (100 µM) were incubated with 20% hRBC (v/v) for 1 h at 37°C and shaking at 300 rpm. The final erythrocyte concentration was approximately 0.9 x 10^9 cells/mL. A value of 0% and 100% cell lysis, respectively, was determined by incubation of hRBC in the presence of PBS containing 0.001% acetic acid and 2.5% Triton X-100 in H2O respectively. The samples were centrifuged, the supernatants were 8-fold diluted in PBS buffer and the optical densities (OD) were measured at 540 nm. The 100% lyses value (OD540H2O) gave an OD540 of approximately 0.5-1.0. Percent hemolysis was calculated as follows: (OD540peptide/OD540H2O) x 100%. [formula]

Data set [2] can be described thus: Plasma stability, human plasma. In kind it is in vitro ADME. As to conditions: human plasma, 37° C, last time point 1440 min. How it is done:
(§1) The stability of the peptides in human and mouse plasma was determined by applying the following method: 346.5 µL/deep well of freshly thawed human plasma (Basler Blutspende-dienst) and mouse plasma (Harlan Sera-Lab, UK), respectively, were spiked with 3.5 µL/well of compound dissolved in DMSO/H2O (90/10 [v/v], 1 mM, triplicate) and incubated at 37° C. At t = 0, 15, 30, 60, 120, 240 and 1440 min aliquots of 50 µL were transferred to filtration plate wells containing 150 µL/well of 2% formic acid in acetonitrile. Following shaking for 2 min the occurred suspensions were filtrated by vacuum. 100 µL of each filtrate were transferred to a propylene microtiter plate and dried under N2. The residual solids were reconstituted by adding 100 µL/well of water/acetonitrile, 95/5 (v/v) + 0.2% formic acid and analyzed by LC/MS as follows: Column: Waters, XBridge C18, mobile phases: (A) water + 0.1% formic acid and (B) acetonitrile/water, 95/5 (v/v) + 0.1% formic acid, gradient: 5%-100% (B) in 1.8 minutes, electrospray ionization, MRM detection (triple quadrupole). The peak areas were determined and triplicate values are averaged. The stability is expressed in percent of the initial value at t = 0. (tx/t0 x 100). By using the TREND function of EXCEL (Microsoft Office 2003) T1/2 were determined.

A short description of data set [3]: Plasma stability, mouse plasma. It is filed as in vitro ADME. Particulars: mouse plasma, 37° C, last time point 1440 min. How it is done: as §1
Data set [4] is described as follows: Drug loading calculations via maintenance dose rate (rate of infusion). Particulars: CLiv-mouse values scaled by 0.127 (GFR human/GFR mouse). The protocol: The drug load for an implant comprising a peptide of the invention was calculated following the basic principles in pharmacokinetics (see also J. Gabrielsson, D. Weiner, "Pharmacokinetics and Pharmaco-dynamics Data Analysis: Concepts and Applications", 4th edition, Swedish Pharmaceutical Press, Stockholm, Sweden, 2006) whereby the maintainance dose rate (rate of infusion, Rin) can be defined as the rate at which a drug is to be administered to reach a steady state of a certain dose in the plasma. The maintainance dose rate can be expressed using the correlation Rin [g/(h*kg)] = CLiv[L/(h*kg)] x Css,eff [g/L], wherein CLiv is the clearance (i.v. - admin.) and Css,eff the effective concentration of the drug in the plasma at steady state considering an efficacy margin A: Css,eff [g/L] = A x (IC50/fu) x MW [(mol/L)*(g/mol)]. Therefore, the total amount of a drug loaded into an implant providing for a constant effective concentration of that drug in the plasma for a certain period of time in a subject of a certain body weight can be calculated by applying the following correlation: Drugload [g/subject] = Rin [g/(h*kg)] x duration[h] x BW [kg/subject]. [formula]
Further pre-conditions are an efficacy margin of A = 3, a study duration of 672 h (28 days) and a body weight of a human suject of 70 kg. The glomerular filtration rate (GFR) which mainly influences the clearance of the peptides is highly dependent on the species. In general, the GFR of humans is averaged to be 107 mL/(h*kg) compared to the GFR of mouse being 840 mL/(h*kg). Therefore, the CLiv-mouse values indicated in Table 5b were allometrically scaled by 107 mL/(h*kg)/840 mL/(h*kg) = 0.127 before employed in the above described correlations.

T1 sequence (P61073 whole entry): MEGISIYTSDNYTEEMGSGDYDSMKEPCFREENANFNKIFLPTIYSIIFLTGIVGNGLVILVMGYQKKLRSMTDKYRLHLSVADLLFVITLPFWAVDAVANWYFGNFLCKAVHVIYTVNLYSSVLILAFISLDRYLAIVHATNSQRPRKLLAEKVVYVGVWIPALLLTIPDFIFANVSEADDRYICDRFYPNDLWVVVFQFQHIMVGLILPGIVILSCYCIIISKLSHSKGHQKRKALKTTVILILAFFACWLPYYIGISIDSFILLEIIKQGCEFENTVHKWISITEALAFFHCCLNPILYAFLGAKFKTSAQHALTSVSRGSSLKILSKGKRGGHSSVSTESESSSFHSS

Turning to `CC(C)NCCCC[C@@H]1NC(=O)[C@H](CCC(N)=O)NC(=O)[C@H](Cc2ccc(O)cc2)NC(=O)[C@@H]2CSSC[C@H](NC(=O)[C@H](Cc3ccc(O)cc3)NC(=O)[C@H](Cc3c[nH]cn3)NC(=O)[C@H](Cc3ccc(O)cc3)NC(=O)[C@@H]3CCCN3C(=O)[C@H]3CCCN3C1=O)C(=O)N[C@@H](CO)C(=O)N[C@@H](C)C(=O)N[C@H](Cc1ccc(O)cc1)C(=O)N[C@@H](CCCNC(C)C)C(=O)N[C@@H](CCCNC(=N)N)C(=O)N[C@@H](Cc1ccc(O)cc1)C(=O)N2` [Ex. 5, cyclo(-Tyr^1-His^2-Tyr^3-Cys^4-Ser^5-Ala^6-^DTyr^7-Orn(iPr)^8-Arg^9-Tyr^10-Cys^11-Tyr^12-Gln^13-Lys(iPr)^14-^DPro^15-Pro^16-), disulfide bond between Cys^4 and Cys^11] (cyclo(YHYCSA[dY][Orn(iPr)]RYCYQ[Lys(iPr)][dP]P); disulfide 4-11), the IC50 (usually the concentration that gives 50% inhibition) at CXCR4 receptor was 430 ± 240 pM. Moreover, in data set [1], the “Hemolysis at 100 µM” value is 3.5%. In addition, in data set [2], the “Plasma stability human pl. T1/2” value was 24 h. The “Plasma stability mouse pl. T1/2” value in data set [3] is 24 h. Besides, the “CLiv, human (allometric scaled)” value in data set [4] was 1.77 mL/min/kg.
As for `CC(C)NCCCC[C@@H]1NC(=O)[C@H](CCC(N)=O)NC(=O)[C@H](Cc2ccc(O)cc2)NC(=O)[C@@H]2CSSC[C@H](NC(=O)[C@H](C)NC(=O)[C@H](Cc3c[nH]cn3)NC(=O)[C@H](Cc3ccc(O)cc3)NC(=O)[C@@H]3CCCN3C(=O)[C@H]3CCCN3C1=O)C(=O)N[C@@H](CO)C(=O)N[C@@H](C)C(=O)N[C@H](Cc1ccc(O)cc1)C(=O)N[C@@H](CCN)C(=O)N[C@@H](CCCNC(=N)N)C(=O)N[C@@H](Cc1ccc(O)cc1)C(=O)N2` [Ex. 3, cyclo(-Tyr^1-His^2-Ala^3-Cys^4-Ser^5-Ala^6-^DTyr^7-Dab^8-Arg^9-Tyr^10-Cys^11-Tyr^12-Gln^13-Lys(iPr)^14-^DPro^15-Pro^16-), disulfide bond between Cys^4 and Cys^11] (cyclo(YHACSA[dY][Dab]RYCYQ[Lys(iPr)][dP]P); disulfide 4-11), the half-maximal inhibitory concentration (IC50) at CXCR4 receptor was 110 ± 10 pM. For the same molecule, the “Hemolysis at 100 µM” value in data set [1] was found to be 1.0%. Besides, the “Plasma stability human pl. T1/2” value in data set [2] came to 24 h. In addition, the “Plasma stability mouse pl. T1/2” value in data set [3] came to 24 h. Further, the “CLiv, human (allometric scaled)” value in data set [4] was 2.35 mL/min/kg.
